Reference: ChEMBL document CHEMBL2203257 (Bioorg Med Chem Lett, 2012)
pIC50: −log10 of the molar value.

Columns and labels:
[1] = biological target: Glycogen synthase kinase-3 beta (Homo sapiens, UniProt P49841); assay: Inhibition of GSK3B
[2] = biological target: Ephrin type-B receptor 4 (Homo sapiens, UniProt P54760); assay: Inhibition of EPHB4
[3] = biological target: Cytochrome P450 1A2 (Homo sapiens, UniProt P05177); assay: Inhibition of CYP1A2 at >20 uM; type: ADME
[4] = biological target: Tyrosine-protein kinase Lyn (Homo sapiens, UniProt P07948); assay: Inhibition of LYN
[5] = biological target: Mitogen-activated protein kinase kinase kinase 20 (Homo sapiens, UniProt Q9NYL2); assay: Inhibition of ZAK
[6] = biological target: Tyrosine-protein kinase JAK2 (Homo sapiens, UniProt O60674); assay: Inhibition of JAK2
[7] = biological target: Receptor-interacting serine/threonine-protein kinase 3 (Homo sapiens, UniProt Q9Y572); assay: Inhibition of RIPK3
[8] = biological target: Casein kinase II subunit alpha' (Homo sapiens, UniProt P19784); assay: Inhibition of CK2a2
Chain of Casein kinase II subunit alpha' (P19784 whole entry, canonical isoform): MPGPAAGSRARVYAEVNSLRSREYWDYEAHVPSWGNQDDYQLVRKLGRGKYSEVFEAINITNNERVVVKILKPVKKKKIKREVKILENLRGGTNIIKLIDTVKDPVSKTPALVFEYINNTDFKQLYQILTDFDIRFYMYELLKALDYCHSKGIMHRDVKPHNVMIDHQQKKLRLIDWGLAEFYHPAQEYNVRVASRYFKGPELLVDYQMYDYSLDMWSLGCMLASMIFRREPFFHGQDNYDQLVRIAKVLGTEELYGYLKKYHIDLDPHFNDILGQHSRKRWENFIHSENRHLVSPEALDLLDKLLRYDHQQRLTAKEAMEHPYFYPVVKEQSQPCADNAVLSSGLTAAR

[9] = biological target: Casein kinase I isoform gamma-1 (Homo sapiens, UniProt Q9HCP0); assay: Inhibition of CSNK1G1
[10] = biological target: Mitogen-activated protein kinase kinase kinase kinase 1 (Homo sapiens, UniProt Q92918); assay: Inhibition of MAP4K1
[11] = biological target: Casein kinase I isoform delta (Homo sapiens, UniProt P48730); assay: Inhibition of CSNK1D
[12] = biological target: Tyrosine-protein kinase Fes/Fps (Homo sapiens, UniProt P07332); assay: Inhibition of FES
[13] = biological target: Cyclin-dependent kinase 9 (Homo sapiens, UniProt P50750); assay: Inhibition of CDK9
[14] = biological target: Casein kinase II subunit alpha (Homo sapiens, UniProt P68400); assay: Inhibition of CK2a1
[15] = biological target: Serine-protein kinase ATM (Homo sapiens, UniProt Q13315); assay: Inhibition of ATM
Chain of Serine-protein kinase ATM (Q13315 whole entry): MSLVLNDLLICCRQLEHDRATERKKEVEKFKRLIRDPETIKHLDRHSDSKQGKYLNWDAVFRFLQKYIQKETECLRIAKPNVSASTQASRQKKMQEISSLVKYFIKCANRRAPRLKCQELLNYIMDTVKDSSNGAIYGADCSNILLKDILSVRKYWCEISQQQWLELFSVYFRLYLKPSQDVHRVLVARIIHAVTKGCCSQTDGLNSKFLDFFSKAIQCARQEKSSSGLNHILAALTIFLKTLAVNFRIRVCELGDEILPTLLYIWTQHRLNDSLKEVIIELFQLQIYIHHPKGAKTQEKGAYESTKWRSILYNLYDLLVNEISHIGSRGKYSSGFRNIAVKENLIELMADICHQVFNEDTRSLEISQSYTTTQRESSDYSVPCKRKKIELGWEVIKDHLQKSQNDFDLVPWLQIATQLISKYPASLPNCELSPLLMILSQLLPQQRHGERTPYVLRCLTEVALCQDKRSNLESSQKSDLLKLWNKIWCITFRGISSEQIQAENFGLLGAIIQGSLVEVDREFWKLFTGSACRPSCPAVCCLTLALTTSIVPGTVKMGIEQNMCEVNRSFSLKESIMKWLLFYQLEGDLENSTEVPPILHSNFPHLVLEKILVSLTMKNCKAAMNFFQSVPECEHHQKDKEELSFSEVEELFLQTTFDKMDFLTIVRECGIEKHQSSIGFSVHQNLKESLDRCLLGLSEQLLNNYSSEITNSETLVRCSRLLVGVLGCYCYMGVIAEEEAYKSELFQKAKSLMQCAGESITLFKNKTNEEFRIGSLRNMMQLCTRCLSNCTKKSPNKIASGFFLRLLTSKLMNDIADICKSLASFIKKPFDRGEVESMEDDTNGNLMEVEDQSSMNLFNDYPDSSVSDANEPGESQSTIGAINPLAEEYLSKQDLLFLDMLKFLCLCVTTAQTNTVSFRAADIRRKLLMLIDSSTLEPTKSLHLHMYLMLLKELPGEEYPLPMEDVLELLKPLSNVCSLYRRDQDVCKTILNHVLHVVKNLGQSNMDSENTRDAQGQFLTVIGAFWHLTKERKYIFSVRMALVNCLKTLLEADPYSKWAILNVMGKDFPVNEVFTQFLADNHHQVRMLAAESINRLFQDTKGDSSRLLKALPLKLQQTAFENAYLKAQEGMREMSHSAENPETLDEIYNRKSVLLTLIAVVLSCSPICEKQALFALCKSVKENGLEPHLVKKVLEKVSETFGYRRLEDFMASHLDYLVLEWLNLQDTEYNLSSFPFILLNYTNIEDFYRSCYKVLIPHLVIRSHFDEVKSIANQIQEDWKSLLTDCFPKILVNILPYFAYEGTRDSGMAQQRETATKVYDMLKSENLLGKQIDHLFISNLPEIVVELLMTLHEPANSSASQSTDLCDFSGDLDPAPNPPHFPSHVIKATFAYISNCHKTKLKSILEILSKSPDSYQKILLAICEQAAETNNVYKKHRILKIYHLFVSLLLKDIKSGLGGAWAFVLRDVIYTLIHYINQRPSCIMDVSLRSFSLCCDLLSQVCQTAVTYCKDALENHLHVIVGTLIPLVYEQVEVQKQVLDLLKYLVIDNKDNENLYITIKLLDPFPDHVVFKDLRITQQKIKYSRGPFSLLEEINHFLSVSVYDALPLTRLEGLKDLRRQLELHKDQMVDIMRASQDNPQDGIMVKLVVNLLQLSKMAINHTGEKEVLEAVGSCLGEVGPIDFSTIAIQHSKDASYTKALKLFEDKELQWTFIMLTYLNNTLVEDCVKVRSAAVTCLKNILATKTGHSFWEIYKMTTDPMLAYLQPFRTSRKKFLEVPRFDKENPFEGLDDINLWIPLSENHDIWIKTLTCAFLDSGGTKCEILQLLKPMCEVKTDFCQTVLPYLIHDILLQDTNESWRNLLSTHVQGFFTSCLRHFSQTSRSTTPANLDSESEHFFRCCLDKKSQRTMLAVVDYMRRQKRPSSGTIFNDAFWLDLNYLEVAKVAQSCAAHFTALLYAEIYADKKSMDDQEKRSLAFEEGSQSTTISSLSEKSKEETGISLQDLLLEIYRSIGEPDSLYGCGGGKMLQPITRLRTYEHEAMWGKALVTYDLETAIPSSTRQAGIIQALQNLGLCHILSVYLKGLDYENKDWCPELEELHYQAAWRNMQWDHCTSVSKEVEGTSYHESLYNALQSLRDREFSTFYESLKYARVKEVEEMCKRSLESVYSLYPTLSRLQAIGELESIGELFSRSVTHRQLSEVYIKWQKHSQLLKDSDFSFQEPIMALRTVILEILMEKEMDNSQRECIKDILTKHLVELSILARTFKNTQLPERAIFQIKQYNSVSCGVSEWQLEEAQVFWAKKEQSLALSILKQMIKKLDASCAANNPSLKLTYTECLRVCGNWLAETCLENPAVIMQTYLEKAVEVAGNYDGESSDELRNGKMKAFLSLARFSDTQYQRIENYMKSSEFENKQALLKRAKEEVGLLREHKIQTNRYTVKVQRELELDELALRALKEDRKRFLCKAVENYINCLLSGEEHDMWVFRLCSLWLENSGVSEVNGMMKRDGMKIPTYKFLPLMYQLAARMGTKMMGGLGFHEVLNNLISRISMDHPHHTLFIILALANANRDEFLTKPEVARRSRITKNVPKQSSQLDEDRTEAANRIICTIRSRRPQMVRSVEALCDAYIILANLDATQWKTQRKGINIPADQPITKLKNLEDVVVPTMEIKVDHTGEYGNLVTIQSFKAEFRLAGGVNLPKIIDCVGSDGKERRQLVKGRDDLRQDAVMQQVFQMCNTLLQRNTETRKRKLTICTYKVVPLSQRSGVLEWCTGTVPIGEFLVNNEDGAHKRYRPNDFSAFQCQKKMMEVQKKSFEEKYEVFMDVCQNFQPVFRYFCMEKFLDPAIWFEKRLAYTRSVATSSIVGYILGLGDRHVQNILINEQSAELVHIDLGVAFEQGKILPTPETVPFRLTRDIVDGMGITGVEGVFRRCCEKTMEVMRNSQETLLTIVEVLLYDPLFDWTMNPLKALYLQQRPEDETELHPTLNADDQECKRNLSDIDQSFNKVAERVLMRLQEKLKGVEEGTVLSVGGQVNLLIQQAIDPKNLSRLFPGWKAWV

[16] = biological target: Non-receptor tyrosine-protein kinase TNK1 (Homo sapiens, UniProt Q13470); assay: Inhibition of TNK1
[17] = biological target: eIF-2-alpha kinase GCN2 (Homo sapiens, UniProt Q9P2K8); assay: Inhibition of EIF2AK4
Chain of eIF-2-alpha kinase GCN2 (Q9P2K8 whole entry): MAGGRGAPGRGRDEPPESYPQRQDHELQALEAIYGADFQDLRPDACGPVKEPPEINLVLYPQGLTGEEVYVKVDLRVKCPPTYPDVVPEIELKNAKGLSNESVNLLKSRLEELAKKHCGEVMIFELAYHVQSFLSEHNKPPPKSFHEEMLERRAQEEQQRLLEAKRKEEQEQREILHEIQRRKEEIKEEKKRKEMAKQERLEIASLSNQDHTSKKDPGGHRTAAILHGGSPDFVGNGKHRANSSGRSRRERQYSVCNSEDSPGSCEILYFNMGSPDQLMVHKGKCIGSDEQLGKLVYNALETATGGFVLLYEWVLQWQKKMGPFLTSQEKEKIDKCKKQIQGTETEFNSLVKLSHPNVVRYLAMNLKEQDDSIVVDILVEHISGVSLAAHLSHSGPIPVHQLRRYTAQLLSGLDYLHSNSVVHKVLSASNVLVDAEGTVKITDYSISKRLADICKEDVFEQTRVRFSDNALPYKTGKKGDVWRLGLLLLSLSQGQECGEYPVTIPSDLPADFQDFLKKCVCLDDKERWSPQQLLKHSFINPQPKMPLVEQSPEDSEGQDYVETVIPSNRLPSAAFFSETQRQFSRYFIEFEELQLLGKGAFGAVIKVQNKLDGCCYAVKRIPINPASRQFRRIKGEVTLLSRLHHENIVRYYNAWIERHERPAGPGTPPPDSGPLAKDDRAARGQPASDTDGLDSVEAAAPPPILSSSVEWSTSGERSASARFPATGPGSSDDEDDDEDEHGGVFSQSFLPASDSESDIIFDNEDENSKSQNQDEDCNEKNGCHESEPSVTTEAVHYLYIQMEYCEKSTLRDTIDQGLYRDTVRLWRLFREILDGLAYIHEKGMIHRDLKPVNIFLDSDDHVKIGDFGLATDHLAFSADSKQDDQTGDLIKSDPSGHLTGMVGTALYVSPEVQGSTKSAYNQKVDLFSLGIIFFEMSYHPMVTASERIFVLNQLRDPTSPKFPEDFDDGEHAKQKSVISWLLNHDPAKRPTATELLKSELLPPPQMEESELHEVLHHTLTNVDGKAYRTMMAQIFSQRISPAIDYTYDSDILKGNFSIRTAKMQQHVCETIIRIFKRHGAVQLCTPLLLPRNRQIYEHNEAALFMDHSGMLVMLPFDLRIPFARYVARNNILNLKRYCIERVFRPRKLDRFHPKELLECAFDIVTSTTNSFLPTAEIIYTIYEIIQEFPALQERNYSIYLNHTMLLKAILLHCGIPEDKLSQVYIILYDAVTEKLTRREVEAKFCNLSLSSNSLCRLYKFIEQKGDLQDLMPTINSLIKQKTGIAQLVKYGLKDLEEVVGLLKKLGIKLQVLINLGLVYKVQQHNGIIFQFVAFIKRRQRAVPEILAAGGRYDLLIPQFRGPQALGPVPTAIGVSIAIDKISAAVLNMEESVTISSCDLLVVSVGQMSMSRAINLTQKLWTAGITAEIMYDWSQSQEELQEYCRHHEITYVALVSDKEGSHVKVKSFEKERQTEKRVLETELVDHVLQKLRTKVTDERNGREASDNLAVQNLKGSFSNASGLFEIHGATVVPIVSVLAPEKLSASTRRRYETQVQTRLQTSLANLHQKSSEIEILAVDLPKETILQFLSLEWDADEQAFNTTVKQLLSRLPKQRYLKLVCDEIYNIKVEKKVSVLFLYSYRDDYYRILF

[18] = biological target: Tyrosine-protein kinase JAK1 (Homo sapiens, UniProt P23458); assay: Inhibition of JAK1
[19] = biological target: 3-phosphoinositide-dependent protein kinase 1 (Homo sapiens, UniProt O15530); assay: Inhibition of PDPK1
[20] = biological target: Calcium/calmodulin-dependent protein kinase kinase 2 (Homo sapiens, UniProt Q96RR4); assay: Inhibition of CAMKK2
[21] = biological target: Serine/threonine-protein kinase ULK3 (Homo sapiens, UniProt Q6PHR2); assay: Inhibition of ULK3
[22] = biological target: Bromodomain-containing protein 4 (Homo sapiens, UniProt O60885); assay: Inhibition of BRD4
[23] = Cmax in mouse at 10 mg/kg, po BID; type: ADME, organism-based; design: dose 10 mg/kg, route oral; settings: in vivo
[24] = biological target: Phosphatidylinositol 4,5-bisphosphate 3-kinase catalytic subunit gamma isoform (Homo sapiens, UniProt P48736); assay: Inhibition of PI3Kgamma by kinobeads assay
[25] = biological target: Cyclin-dependent kinase 2 (Homo sapiens, UniProt P24941); assay: Inhibition of CDK2
[26] = biological target: Protein kinase C alpha type (Homo sapiens, UniProt P17252); assay: Inhibition of PRKCA
[27] = biological target: Casein kinase I isoform gamma-3 (Homo sapiens, UniProt Q9Y6M4); assay: Inhibition of CSNK1G3
[28] = biological target: Dual specificity protein kinase CLK1 (Homo sapiens, UniProt P49759); assay: Inhibition of CLK1
[29] = biological target: Tyrosine-protein kinase Tec (Homo sapiens, UniProt P42680); assay: Inhibition of TEC
[30] = biological target: Serine/threonine-protein kinase TAO1 (Homo sapiens, UniProt Q7L7X3); assay: Inhibition of TAOK1
[31] = biological target: Aurora kinase A (Homo sapiens, UniProt O14965); assay: Inhibition of AURKA
[32] = biological target: Inhibitor of nuclear factor kappa-B kinase subunit epsilon (Homo sapiens, UniProt Q14164); assay: Inhibition of IKBKE

pIC50 [1]: < 5.00
pIC50 [2]: < 5.00
inhibition (INH) [3]: Active
pIC50 [4]: < 5.00
pIC50 [5]: < 5.00
pIC50 [6]: < 5.00
pIC50 [7]: < 5.00
pIC50 [8]: < 5.00
pIC50 [9]: 5.02
pIC50 [10]: < 5.00
pIC50 [11]: < 5.00
pIC50 [12]: < 5.00
pIC50 [13]: < 5.00
pIC50 [14]: < 5.00
pIC50 [15]: < 5.00
pIC50 [16]: < 5.00
pIC50 [17]: < 5.00
pIC50 [18]: 5.36
pIC50 [19]: < 5.00
pIC50 [20]: < 5.00
pIC50 [21]: < 5.00
pIC50 [22]: < 5.00
Cmax [23]: 10.2 µM
pIC50 [24]: 7.90
pIC50 [25]: < 5.00
pIC50 [26]: < 5.00
pIC50 [27]: < 5.00
pIC50 [28]: < 5.00
pIC50 [29]: < 5.00
pIC50 [30]: < 5.00
pIC50 [31]: < 5.00
pIC50 [32]: < 5.00
SMILES: CC(C)(C)NS(=O)(=O)c1cncc(-c2ccn3nc(N)nc3c2)c1
